Measurements as given in paper PMC6272684, “Synthesis, Antiproliferative and Antifungal Activities of 1,2,3-Triazole-Substituted Carnosic Acid and Carnosol Derivatives” (Molecules, 2015).

Tests used:
[1] = tested on: gastric epithelial adenocarcinoma (AGS) cells; assay: Antiproliferative assay (MTT reduction, 3 days); type: cell-based, human; details: >100 µM considered inactive, read-out: IC50 ± SD, AGS
Protocol: The antiproliferative activity towards the following human cell lines was determined: normal lung fibroblasts (MRC-5), gastric epithelial adenocarcinoma (AGS), lung cancer (SK-MES-1) and bladder carcinoma (J82) cells. […] When comparing the pairs 3–4, 5–6 and 7–8 differing in one CH2 unit in the linker, the activity decreased with linker length.
All human cell lines used in this work were purchased from the American Type Culture Collection (ATCC, Manasas, VA, USA). Normal lung MRC-5 fibroblasts (CCL-171), SK-MES-1 lung cancer cells (HTB-58) and J82 bladder carcinoma cells (HTB-1) were grown as monolayers in minimum essential Eagle medium (MEM) with Earles’s salts, 2 mM L-glutamine and 1.5 g∙L^−1 sodium bicarbonate. Gastric adenocarcinoma AGS cells (CRL-1739) were grown as monolayers in Ham F-12 medium containing 1 mM L-glutamine and 1.5 g∙L^−1 sodium bicarbonate. All media were supplemented with 10% heat-inactivated FBS, 100 IU∙mL^−1 penicillin and 100 µg∙mL^−1 streptomycin. Cells were grown in a humidified incubator with 5% CO2 in air at 37 °C. For the antiproliferative assay, cells were plated at a density of 5 × 10^4 cells∙mL^−1. Cells were seeded in 96-well plates (100 µL∙well^−1). One day after seeding, cells were treated with medium containing the compounds at concentrations ranging from 0 up to 100 µM during 3 days. The compounds were dissolved in DMSO (1% final concentration) and complete medium. Untreated cells (medium containing 1% DMSO) were used as 100% viability controls. […] Each concentration was tested in sextuplicate and experiments were repeated 2 times. Cell viability was determined by means of the MTT reduction assay at the end of the incubation with the products. The results were transformed to percentage of controls and the IC50 value was obtained adjusting the dose-response curve to a sigmoidal model. The software used was OriginPro 8.1 [30].

[2] = tested on: C. albicans ATCC 10231; assay: Antifungal broth microdilution (CLSI M27-A3), growth inhibition; type: cell-based, Candida albicans; details: for MIC50 (minimum concentration to inhibit 50% of fungal growth), C. albicans: C. albicans ATCC 10231
Protocol: (§1) The antifungal properties of compounds 1–24 against two clinical important fungal species, C. albicans ATCC 10231 and C. neoformans ATCC 32264 were investigated. Results were expressed as the percentages of inhibition of each fungus in the range 250–3.9 μg∙mL^−1 by using the standardized microbroth dilution method M-27A3 of Clinical and Laboratory Standards Institute which assures reliable and reproducible results.
(§2) For the antifungal evaluation, standardized strains from the American Type Culture Collection (ATCC), Rockville, MD, USA, were used. The microorganisms included yeasts (Candida albicans ATCC 10231 and Cryptococcus neoformans ATCC 32264). Strains were grown on Sabouraud-chloramphenicol agar slants for 48 h at 30 °C, maintained on slopes of Sabouraud-dextrose agar (SDA, Oxoid), and subcultured every 15 days to prevent pleomorphic transformations. Inocula of cell or spore suspensions were obtained according to reported procedures and adjusted to 1–5 × 10^3 cells/spores with colony forming units (CFU)/mL [29].
(§3) Broth microdilution techniques were performed in 96-well microplates according to the Clinical and Laboratory Standards Institute Reference Method for Broth Dilution Antifungal Susceptibility Testing of Yeasts, Approved Standard M27-A3 [29]. For the assay, compound test wells (CTWs) were prepared with stock solutions of each compound in DMSO (maximum concentration ≤1%), diluted with RPMI-1640, to final concentrations of 250–3.9 μg∙mL^−1. An inoculum suspension (100 μL) was added to each well (final volume in the well = 200 μL). A growth control well (GCW) (containing medium, inoculum, and the same amount of DMSO used in a CTW, but compound-free) and a sterility control well (SCW) (sample, medium, and sterile water instead of inoculum) were included for each fungus tested. Microtiter trays were incubated in a moist, dark chamber at 30 °C for 48 h for both yeasts. Microplates were read in a VERSA Max microplate reader (Molecular Devices, Sunnyvale, CA, USA). Amphotericin B (Sigma-Aldrich) was used as positive control. Tests were performed in triplicate. Reduction of growth for each compound concentration was calculated as follows: % of inhibition = 100 − (OD 405 CTW − OD 405 SCW)/(OD 405 GCW − OD 405 SCW). The means ± SEM were the results of triplicate tests. Three endpoints were defined from the assay explained above and the dose-response curves. Minimum Inhibitory concentration (MIC) resulting in total fungal growth inhibition was named MIC100 while MIC50 was defined as the minimum concentration that inhibits 50% of the fungal growth.

[3] = tested on: C. neoformans ATCC 32264; assay: as above; type: cell-based, Cryptococcus neoformans; details: for MIC50 (minimum concentration to inhibit 50% of fungal growth), C. neoformans: C. neoformans ATCC 32264
Protocol: as §1, §2, §3

Row | IC50 [1] | MIC50 (minimum concentration to inhibit 50% of fungal growth), C. albicans [2] | MIC50 (minimum concentration to inhibit 50% of fungal growth), C. neoformans [3] | SMILES | Inhibition percentage against C. albicans ATCC 10231 ([2]; 3.9 μg∙mL^−1, 48 h) | Inhibition percentage against C. albicans ATCC 10231 ([2]; 7.8 μg∙mL^−1, 48 h) | Inhibition percentage against C. albicans ATCC 10231 ([2]; 15.6 μg∙mL^−1, 48 h) | Inhibition percentage against C. albicans ATCC 10231 ([2]; 62.5 μg∙mL^−1, 48 h) | Inhibition percentage against C. albicans ATCC 10231 ([2]; 125 μg∙mL^−1, 48 h) | Inhibition percentage against C. albicans ATCC 10231 ([2]; 250 μg∙mL^−1, 48 h) | Inhibition percentage against C. albicans ATCC 10231 ([2]; 31. μg∙mL^−1, 48 h) | Antifungal activity against C. albicans (in words) ([2]; at the assayed concentrations (250–3.9 μg∙mL^−1)) | Inhibition percentage against C. neoformans ATCC 32264 ([3]; 3.9 μg∙mL^−1, 48 h) | Inhibition percentage against C. neoformans ATCC 32264 ([3]; 7.8 μg∙mL^−1, 48 h) | Inhibition percentage against C. neoformans ATCC 32264 ([3]; 15.6 μg∙mL^−1, 48 h) | Inhibition percentage against C. neoformans ATCC 32264 ([3]; 31.2 μg∙mL^−1, 48 h) | Inhibition percentage against C. neoformans ATCC 32264 ([3]; 62.5 μg∙mL^−1, 48 h) | Inhibition percentage against C. neoformans ATCC 32264 ([3]; 125 μg∙mL^−1, 48 h) | Inhibition percentage against C. neoformans ATCC 32264 ([3]; 250 μg∙mL^−1, 48 h)
1 | 89.4 µM | >250 µg/mL | 250 µg/mL | COC(=O)C12CCCC(C)(C)C1CCc1cc(C(C)C)c(OC(=O)CCc3cn(Cc4ccccc4)nn3)c(OC(=O)CCc3cn(Cc4ccccc4)nn3)c12 (stereo not shown) [Compound 11, Methyl(11,12-O-(3-(1-benzyl-1H-1,2,3-triazol-4-yl)-propanoyloxy)-abieta-8,11,13-triene)-20-oate] | 1.8 ± 0.1% | 1.9 ± 0.5% | 3.5 ± 0.7% | 11.8 ± 0.3% | 23.3 ± 2.1% | 45.7 ± 3.0% | 5.5 ± 1.7% | weak effect | 0.0% | 2.7 ± 0.9% | 13.3 ± 2.0% | 14.2 ± 1.3% | 19.4 ± 2.1% | 38.3 ± 2.9% | 57.2 ± 2.4%
2 | – | >250 µg/mL | >250 µg/mL | COC(=O)C12CCCC(C)(C)C1CCc1cc(C(C)C)c(OC(=O)CCc3cn(Cc4ccc(Br)cc4)nn3)c(OC(=O)CCc3cn(Cc4ccc(Br)cc4)nn3)c12 (stereo not shown) [Compound 13, Methyl(11,12-O-(3-(1-(4-bromobenzyl)-1H-1,2,3-triazol-4-yl)-propanoyloxy)-abieta-8,11,13-triene)-20-oate] | 0.0% | 0.6 ± 0.1% | 1.3 ± 0.3% | 6.7 ± 0.1% | 10.7 ± 0.3% | 17.6 ± 0.2% | 4.3 ± 0.4% | – | 5.8 ± 0.6% | 10.0 ± 1.0% | 13.3 ± 0.3% | 13.7 ± 0.6% | 16.3 ± 1.1% | 16.8 ± 1.8% | 25.7 ± 0.5%
